Measured values as given in patent US10570152B2, “Antibacterial therapeutics and prophylactics” (VYOME BIOSCIENCES PVT. LTD., priority 2015, dated 2020).
Values after ≈ are worked out from the molar mass of the structure shown.

Experiments:
Assay in all cases: MIC by micro broth dilution
Assay type in all cases: cell-based
[1] = test system: A. baumannii ATCC 1906; details: for MIC: Acinetobacter baumannii, ATCC1906, read-out: Minimum inhibitory concentration (MIC)
Description: (§1) MIC of DART molecules were determined by micro broth dilution as per CLSI guidelines. Bacterial strains were cultured in Brain Heart Infusion Agar (BHIA) at 37° C. for 24 h. For MIC determination, BHI broth (100 μl) was added to each of the wells of a 96 well plate. 100 μl of broth containing drug was added to the first well (1A to 1H) and thereafter serial (double) dilutions were carried out for up to 10 wells (column 1 to column 10 of the 96 well plate). Bacterial inoculum was prepared by adjusting the bacterial culture turbidity to 0.5 McFarland standard (approximately 1.5×10^8 cells/ml) and further diluted (100 times with sterile BHI broth). Diluted bacterial suspension (100 μl) was added to each well except sterility control wells (column 12 of 96 well plate). The plates were incubated at 37° C. for 24 h. The MIC of the test compound was measured after addition of Alamar blue dye.

[2] = test system: E. aerogenes M2-1; details: for MIC: Klebsiella aerogenes, M21, read-out: Minimum inhibitory concentration (MIC)
Description: as §1

[3] = test system: E. aerogenes NCIM 5139; details: for MIC: Klebsiella aerogenes, NCIM5139, read-out: Minimum inhibitory concentration (MIC)
Description: as §1

[4] = test system: E. coli BAA 196; details: for MIC: Escherichia coli, BAA196, read-out: Minimum inhibitory concentration (MIC)
Description: as §1

[5] = test system: E. coli MTCC 1687; details: for MIC: Escherichia coli, MTCC1687, read-out: Minimum inhibitory concentration (MIC)
Description: as §1

[6] = test system: E. faecium NCIM 5421; details: for MIC: Enterococcus faecium, NCIM5421, read-out: Minimum inhibitory concentration (MIC)
Description: as §1

[7] = test system: K. pneumonia ATCC 13883; details: for activity in words: Klebsiella pneumonia (susceptible); for MIC: Klebsiella pneumoniae, ATCC13883, read-out: Minimum inhibitory concentration (MIC)
Description: as §1

[8] = test system: P. aeruginosa ATCC 27853; details: for MIC: Pseudomonas aeruginosa, ATCC27853, read-out: Minimum inhibitory concentration (MIC)
Description: as §1

[9] = test system: S. aureus ATCC 43300; details: S. aureus ATCC 43300; for MIC: Staphylococcus aureus, ATCC43300, read-out: Minimum inhibitory concentration (MIC)
Description: as §1

[10] = test system: S. aureus CCARM 3505; details: for MIC: Staphylococcus aureus, CCARM3505, read-out: Minimum inhibitory concentration (MIC)
Description: as §1

[11] = test system: S. aureus MTCC 6908; details: for MIC: Staphylococcus aureus, MTCC6908, read-out: Minimum inhibitory concentration (MIC)
Description: as §1

[12] = test system: S. epidermidis ATCC 35984; details: for MIC: Staphylococcus epidermidis, ATCC35984, read-out: Minimum inhibitory concentration (MIC)
Description: as §1

[13] = test system: S. epidermidis S12-1; details: for MIC: Staphylococcus epidermidis, S121, read-out: Minimum inhibitory concentration (MIC)
Description: as §1

[14] = test system: A. baumannii CCARM 12001; details: for MIC: Acinetobacter baumannii, CCARM12001, read-out: Minimum inhibitory concentration (MIC)
Description: as §1

[15] = test system: A. baumannii CCARM 12020; details: for MIC: Acinetobacter baumannii, CCARM12020, read-out: Minimum inhibitory concentration (MIC)
Description: as §1

[16] = test system: P. aeruginosa CCARM 2161; details: Pseudomonas aeruginosa, CCARM2161, read-out: Minimum inhibitory concentration (MIC)
Description: as §1

[17] = test system: P. aeruginosa CCARM 2204; details: Pseudomonas aeruginosa, CCARM2204, read-out: Minimum inhibitory concentration (MIC)
Description: as §1

SMILES | MIC [1] | MIC [2] | MIC [3] | MIC [4] | MIC [5] | MIC [6] | activity in words [7] | MIC ([7]; K. pneumonia ATCC 13883) | MIC [8] | MIC [9] | MIC [10] | MIC [11] | MIC [12] | MIC [13] | MIC [14] | MIC [15] | MIC [16] | MIC [17] | other results
CC1Sc2c(C(=O)O)c(=O)c3cc(F)c(N4CCN(C(=O)c5ccccn5)CC4)cc3n21 (stereo not drawn) [Compound 31, 6-Fluoro-1-methyl-4-oxo-7-(4-picolinoylpiperazin-1-yl)-1H,4H-[1,3]thiazeto[3,2-a]quinoline-3-carboxylic acid] | 2 µg/mL (≈ 4.4 µM) | 8 µg/mL (≈ 17.6 µM) | 1 µg/mL (≈ 2.2 µM) | 4 µg/mL (≈ 8.8 µM) | 2 µg/mL (≈ 4.4 µM) | 0.06 µg/mL (≈ 0.132 µM) | active | 0.12 µg/mL (≈ 0.264 µM) | 8 µg/mL (≈ 17.6 µM) | 0.25 µg/mL (≈ 0.55 µM) | 16 µg/mL (≈ 35.2 µM) | 0.5 µg/mL (≈ 1.1 µM) | 0.13 µg/mL (≈ 0.286 µM) | 8 µg/mL (≈ 17.6 µM) | – | – | – | – | –
CC1Sc2c(C(=O)O)c(=O)c3cc(F)c(N4CCN(Cc5nc6cc(Cl)c(Cl)cc6[nH]5)CC4)cc3n21 (stereo not drawn) [Compound 21, 7-(4-((5,6-Dichloro-1H-benzo[d]imidazol-2-yl)methyl)piperazin-1-yl)-6-fluoro-1-methyl-4-oxo-1H,4H-[1,3]thiazeto[3,2-a]quinoline-3-carboxylic acid] | 16 µg/mL (≈ 29.2 µM) | 16 µg/mL (≈ 29.2 µM) | 16 µg/mL (≈ 29.2 µM) | > 16 µg/mL | 8 µg/mL (≈ 14.6 µM) | 0.25 µg/mL (≈ 0.456 µM) | active | 0.5 µg/mL (≈ 0.912 µM) | 16 µg/mL (≈ 29.2 µM) | 0.13 µg/mL (≈ 0.237 µM) | > 16 µg/mL | 0.25 µg/mL (≈ 0.456 µM) | < 0.03 µg/mL | > 16 µg/mL | > 16 µg/mL | > 16 µg/mL | > 16 µg/mL | > 16 µg/mL | –
CC1Sc2c(C(=O)O)c(=O)c3cc(F)c(N4CCN(Cc5nc6ccc(N)cc6[nH]5)CC4)cc3n21 (stereo not drawn) [Compound 20, 7-(4-((6-Amino-1H-benzo[d]imidazol-2-yl)methyl)piperazin-1-yl)-6-fluoro-1-methyl-4-oxo-1H,4H-[1,3]thiazeto[3,2-a]quinoline-3-carboxylic acid] | 8 µg/mL (≈ 16.2 µM) | 4 µg/mL (≈ 8.09 µM) | 0.5 µg/mL (≈ 1.01 µM) | > 16 µg/mL | 1 µg/mL (≈ 2.02 µM) | 1 µg/mL (≈ 2.02 µM) | active | 0.25 µg/mL (≈ 0.506 µM) | 4 µg/mL (≈ 8.09 µM) | 0.5 µg/mL (≈ 1.01 µM) | > 16 µg/mL | 8 µg/mL (≈ 16.2 µM) | 0.13 µg/mL (≈ 0.263 µM) | > 16 µg/mL | – | – | – | – | –
CC1Sc2c(C(=O)O)c(=O)c3cc(F)c(N4CCN(Cc5nc6ccc([N+](=O)[O-])cc6[nH]5)CC4)cc3n21 (stereo not drawn) [Compound 18, 6-Fluoro-1-methyl-7-(4-((6-nitro-1H-benzo[d]imidazol-2-yl)methyl)piperazin-1-yl)-4-oxo-1H,4H-[1,3]thiazeto[3,2-a]quinoline-3-carboxylic acid] | 1 µg/mL (≈ 1.91 µM) | > 16 µg/mL | 0.25 µg/mL (≈ 0.477 µM) | > 4 µg/mL | > 4 µg/mL | 0.5 µg/mL (≈ 0.953 µM) | active | 0.12 µg/mL (≈ 0.229 µM) | > 16 µg/mL | 1 µg/mL (≈ 1.91 µM) | > 4 µg/mL | 1 µg/mL (≈ 1.91 µM) | 0.25 µg/mL (≈ 0.477 µM) | > 16 µg/mL | – | – | > 16 µg/mL | > 16 µg/mL | –
Cc1ncc([N+](=O)[O-])n1CC(O)CN1CCN(c2cc3c(cc2F)c(=O)c(C(=O)O)c2n3C(C)S2)CC1 (stereo not drawn) [Compound 1] | > 16 µg/mL | > 16 µg/mL | > 16 µg/mL | 16 µg/mL (≈ 30 µM) | 16 µg/mL (≈ 30 µM) | > 16 µg/mL | – | – | > 16 µg/mL | 1 µg/mL (≈ 1.88 µM) | 32 µg/mL (≈ 60.1 µM) | 1.5 µg/mL (≈ 2.82 µM) | 0.13 µg/mL (≈ 0.244 µM) | > 64 µg/mL | > 16 µg/mL | > 16 µg/mL | > 16 µg/mL | > 16 µg/mL | –
CC1Sc2c(C(=O)O)c(=O)c3cc(F)c(N4CCN(CC(=O)Nc5ncc([N+](=O)[O-])s5)CC4)cc3n21 (stereo not drawn) [Compound 6, 6-Fluoro-1-methyl-7-(4-(2-((5-nitrothiazol-2-yl)amino)-2-oxoethyl)piperazin-1-yl)-4-oxo-1H,4H-[1,3]-thiazeto[3,2-a]quinoline-3-carboxylic acid] | 8 µg/mL (≈ 15 µM) | 4 µg/mL (≈ 7.48 µM) | 4 µg/mL (≈ 7.48 µM) | 16 µg/mL (≈ 29.9 µM) | 1 µg/mL (≈ 1.87 µM) | 0.25 µg/mL (≈ 0.468 µM) | active | 0.25 µg/mL (≈ 0.468 µM) | 8 µg/mL (≈ 15 µM) | < 0.13 µg/mL | 4 µg/mL (≈ 7.48 µM) | 0.1 µg/mL (≈ 0.187 µM) | < 0.03 µg/mL | 4 µg/mL (≈ 7.48 µM) | – | – | – | – | –
CC1Sc2c(C(=O)O)c(=O)c3cc(F)c(N4CCN(C(=O)c5cccc(Br)n5)CC4)cc3n21 (stereo not drawn) [Compound 32, 7-(4-(6-Bromopicolinoyl)piperazin-1-yl)-6-fluoro-1-methyl-4-oxo-1H,4H-[1,3]thiazeto[3,2-a]-quinoline-3-carboxylic acid] | 2 µg/mL (≈ 3.75 µM) | 16 µg/mL (≈ 30 µM) | 16 µg/mL (≈ 30 µM) | 8 µg/mL (≈ 15 µM) | 4 µg/mL (≈ 7.5 µM) | – | active | 0.5 µg/mL (≈ 0.937 µM) | 16 µg/mL (≈ 30 µM) | 0.06 µg/mL (≈ 0.112 µM) | 8 µg/mL (≈ 15 µM) | 0.5 µg/mL (≈ 0.937 µM) | 0.13 µg/mL (≈ 0.244 µM) | 4 µg/mL (≈ 7.5 µM) | > 16 µg/mL | > 16 µg/mL | > 16 µg/mL | > 16 µg/mL | –
CC1Sc2c(C(=O)O)c(=O)c3cc(F)c(N4CCN(C(=O)NC(=N)N)CC4)cc3n21 (stereo not drawn) [Compound 44, 7-(4-(Carbamimidoylcarbamoyl)piperazin-1-yl)-6-fluoro-1-methyl-4-oxo-1H,4H-[1,3]thiazeto[3,2-a]quinoline-3-carboxylic acid] | 16 µg/mL (≈ 36.8 µM) | 1 µg/mL (≈ 2.3 µM) | 1 µg/mL (≈ 2.3 µM) | > 16 µg/mL | 0.5 µg/mL (≈ 1.15 µM) | > 16 µg/mL | – | 0.12 µg/mL (≈ 0.276 µM) | 4 µg/mL (≈ 9.21 µM) | 4 µg/mL (≈ 9.21 µM) | > 16 µg/mL | 8 µg/mL (≈ 18.4 µM) | 4 µg/mL (≈ 9.21 µM) | > 16 µg/mL | > 16 µg/mL | > 16 µg/mL | – | > 16 µg/mL | –
O=C(N[C@@H]1CCCCN(c2c(F)cc3c(=O)c(C(=O)O)cn(C4CC4)c3c2Cl)C1)c1ccc([N+](=O)[O-])o1 [Compound 16] | – | – | – | – | – | – | active | – | – | – | – | – | – | – | – | – | – | – | Minimum inhibitory concentration (MIC) [1]: .05 µg/mL (≈ 0.0938 µM); Minimum inhibitory concentration (MIC) [14]: 16 µg/mL (≈ 30 µM); Minimum inhibitory concentration (MIC) [15]: >16 µg/mL; Minimum inhibitory concentration (MIC) [2]: 4 µg/mL (≈ 7.51 µM); Minimum inhibitory concentration (MIC) [3]: 2 µg/mL (≈ 3.75 µM); Minimum inhibitory concentration (MIC) [4]: >16 µg/mL; Minimum inhibitory concentration (MIC) [5]: 4 µg/mL (≈ 7.51 µM); Minimum inhibitory concentration (MIC) [6]: 0.12 µg/mL (≈ 0.225 µM); Minimum inhibitory concentration (MIC) ([7]; K. pneumonia ATCC 13883): 0.25 µg/mL (≈ 0.469 µM); Minimum inhibitory concentration (MIC) [8]: 2 µg/mL (≈ 3.75 µM); Minimum inhibitory concentration (MIC) [9]: <0.01 µg/mL; Minimum inhibitory concentration (MIC) [10]: 0.5 µg/mL (≈ 0.938 µM); Minimum inhibitory concentration (MIC) [11]: 0.25 µg/mL (≈ 0.469 µM); Minimum inhibitory concentration (MIC) [12]: <0.03 µg/mL; Minimum inhibitory concentration (MIC) [13]: 0.13 µg/mL (≈ 0.244 µM)
